Data reported in patent US6649603B2, “Cyclylamine sulfonamides as β3-adrenergic receptor agonists” (Wyeth, priority 2000, dated 2003).

Tests used:
[1] = target: T1, human β1-adrenergic receptor (Homo sapiens, UniProt P08588); experiment: cAMP accumulation (SPA) in CHO cells transfected with human β1 adrenergic receptor; assay type: cell-based; settings: for beta-1 IA (maximal response relative to isoproterenol at 10^-5 M): fraction of maximal isoproterenol response
T1 construct: expressed in transfected cells; host or cells: CHO cells
T1 sequence (P08588 whole entry): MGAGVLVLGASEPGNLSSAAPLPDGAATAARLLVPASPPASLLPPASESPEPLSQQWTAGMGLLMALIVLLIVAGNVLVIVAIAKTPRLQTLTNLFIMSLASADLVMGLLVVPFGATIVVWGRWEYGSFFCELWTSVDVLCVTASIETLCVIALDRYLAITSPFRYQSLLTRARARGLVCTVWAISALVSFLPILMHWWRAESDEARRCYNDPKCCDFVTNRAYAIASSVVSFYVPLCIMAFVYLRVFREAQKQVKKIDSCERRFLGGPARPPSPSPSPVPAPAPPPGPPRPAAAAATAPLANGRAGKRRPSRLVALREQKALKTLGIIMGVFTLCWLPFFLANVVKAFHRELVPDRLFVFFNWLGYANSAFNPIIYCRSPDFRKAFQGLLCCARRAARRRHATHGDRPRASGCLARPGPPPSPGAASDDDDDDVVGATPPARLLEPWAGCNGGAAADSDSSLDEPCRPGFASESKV
Procedure: (§1) The ability of compounds of this invention to treat or inhibit disorders related to insulin resistance or hyperglycemia was established with representative compounds of this invention in the following standard pharmacological test procedures, which measured the binding selectivity to the β1, β2, and β3 adrenergic receptors. Binding to the receptors was measured in Chinese Hamster ovary (CHO) cells that were transfected with adrenergic receptors. The following briefly summarizes the procedures used and results obtained.
(§2) Transfection of CHO cells with β1 and β2 adrenergic receptors: CHO cells were transfected with human β1- or β2-adrenergic receptors as described in Tate, K. M., Eur. J. Biochem., 196:357-361 (1991).
(§3) Binding Procedure: Clones expressing receptor levels of 70 to 110 fmoles/mg protein were used in the test procedures. CHO cells were grown in 24-well tissue culture plates in Dulbecco's Modified Eagle Media with 10% fetal bovine serum, MEM non-essential amino acids, Penicillin-Streptompycin and Geneticin. On the day of test procedure, growth medium was replaced with preincubation media (Dulbecco's Modified Eagle Media and incubated for 30 minutes at 37° C. Preincubation medium was replaced with 0.2 ml treatment medium containing DMEM media containing 250 μM IBMX (isobutyl-1-methylxantine) plus 1 mM ascorbic acid with test compound dissolved in DMSO. Test compounds were tested over a concentration range of 10^−9 M to 10^−5 M for β3 cells and 10^−8 to 10^−4 M for β1 and β2 transfected cells. Isoproterenol (10^−5 M) was used as an internal standard for comparison of activity. Cells were incubated at 37° C. on a rocker for 30 min with the β3 cells and 15 min for […]. Incubation was stopped with the addition of 0.2N HCl and neutralized with 2.5N NaOH. The plates, containing the cells and neutralized media, were stored at −20 degrees celsius until ready to test for cAMP using the SPA test kit (Amersham).
(§4) Data Analysis and Results: Data collected from the SPA test procedure were analyzed as per cent of the maximal isoproterenol response at 10^−5 M. Activity curves were plotted using the SAS statistical and graphics software. EC50 values were generated for each compound and the maximal response (IA) developed for each compound is compared to the maximal response of isoproternol at 10^−5 M from the following formula: [formula]

[2] = target: T2, human β2-adrenergic receptor (Homo sapiens, UniProt P07550); experiment: cAMP accumulation (SPA) in CHO cells transfected with human β2 adrenergic receptor; assay type: cell-based; settings: for beta-2 IA (maximal response relative to isoproterenol at 10^-5 M): fraction of maximal isoproterenol response
T2 construct: expressed in transfected cells; host or cells: CHO cells
T2 sequence (P07550 whole entry): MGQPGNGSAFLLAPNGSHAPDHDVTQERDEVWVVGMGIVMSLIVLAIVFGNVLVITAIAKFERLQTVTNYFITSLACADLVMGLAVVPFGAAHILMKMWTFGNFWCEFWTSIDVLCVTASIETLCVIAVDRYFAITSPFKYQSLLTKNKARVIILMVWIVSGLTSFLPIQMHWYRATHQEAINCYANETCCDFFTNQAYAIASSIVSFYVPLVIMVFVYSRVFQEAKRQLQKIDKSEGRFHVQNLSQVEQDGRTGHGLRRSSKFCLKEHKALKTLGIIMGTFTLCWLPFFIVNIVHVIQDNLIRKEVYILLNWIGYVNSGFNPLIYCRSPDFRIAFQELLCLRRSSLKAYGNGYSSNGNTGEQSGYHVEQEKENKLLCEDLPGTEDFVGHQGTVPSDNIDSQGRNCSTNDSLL
Procedure: as §1, §2, §3, §4

[3] = target: T3, human β3 adrenergic receptor (Homo sapiens, UniProt P13945); experiment: cAMP accumulation (SPA) in CHO cells transfected with human β3 adrenergic receptor; assay type: cell-based; settings: for EC50 / beta-3 IA (maximal response relative to isoproterenol at 10^-5 M): CHO cells, cAMP; for EC50: 30 min incubation, read-out: beta-3 EC50; for beta-3 IA (maximal response relative to isoproterenol at 10^-5 M): fraction of maximal isoproterenol response
T3 construct: Full length β3 AR clones (402 amino acids) containing the last 6 amino acids of hβ3_AR are prepared; expressed in transfected cells; host or cells: CHO cells
T3 sequence (P13945 whole entry): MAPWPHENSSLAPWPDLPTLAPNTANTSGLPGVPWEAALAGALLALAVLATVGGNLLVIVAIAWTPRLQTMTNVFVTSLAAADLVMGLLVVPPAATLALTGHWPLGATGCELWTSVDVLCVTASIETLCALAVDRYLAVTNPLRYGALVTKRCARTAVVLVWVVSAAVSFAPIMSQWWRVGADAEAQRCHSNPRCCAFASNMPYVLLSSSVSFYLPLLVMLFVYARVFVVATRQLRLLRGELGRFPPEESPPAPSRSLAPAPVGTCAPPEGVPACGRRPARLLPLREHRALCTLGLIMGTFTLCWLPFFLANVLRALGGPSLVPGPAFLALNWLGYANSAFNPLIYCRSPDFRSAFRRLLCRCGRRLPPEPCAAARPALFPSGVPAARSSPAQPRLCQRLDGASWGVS
Procedure: as §1
Cloning of Human β3-AR Genomic DNA: cDNA was constructed by ligating four polymerase chain reaction (PCR) products using the following primers: an ATG-NarI fragment, sense primer 5′-[…]3′ and anti-sense primer 5′[…]3′; a NarI-AccI fragment, 5′[…]3′ as sense and 5′[…]3′ as anti-sense primer; an Accli-Styl fragment, sense primer 5′[…]3′ and anti-sense primer 5′[…]3′ and a Styl-TAG fragment, with sense primer 5′[…]3′ and anti-sense primer 5′[…]3′. The corresponding primer sequences are described in Mantzoros, C. S., et.al., Diabetes 45: 909-914 (1996). The four fragments are ligated into a pUC 18 plasmid (Gibco-BRL) and sequenced. Full length β3 AR clones (402 amino acids) containing the last 6 amino acids of hβ3_AR are prepared with the β3-βARpcDNA3 from ATTC.
as §3, §4

Compound | beta-1 IA (maximal response relative to isoproterenol at 10^-5 M) [1] | EC50 ([1]; read-out: beta-1 EC50) [nM] | beta-2 IA (maximal response relative to isoproterenol at 10^-5 M) [2] | EC50 ([2]; read-out: beta-2 EC50) [nM] | melting point [°C] | EC50 [3] [nM] | beta-3 IA (maximal response relative to isoproterenol at 10^-5 M) [3] | beta-3 activity at single concentration ([3]; at 10 μM, per cent of maximal isoproterenol response) [% at 10 μM]
CCCCOc1ccc(S(=O)(=O)N2CC(NC[C@H](O)COc3ccc(O)cc3)C2)cc1 [Example 1, 4-{(2S)-3-[1-(4-Butoxy-benzenesulfonyl)-azetidin-3-ylamino]-2-hydroxy-propoxy}-phenol] | 0.49 | 1600 | 0.39 | 900 | 55 to 58 | 30 | 0.82 | –
CCCCOc1ccc(S(=O)(=O)N2CC(NCC(O)COc3cccc4[nH]c5ccccc5c34)C2)cc1 (stereo not shown) [Example 3, 1-[1-(4-Butoxy-benzenesulfonyl)-azetidin-3-ylamino]-3-(9H-carbazol-4-yloxy)-propan-2-ol] | – | – | – | – | 81 to 84 | – | – | –
CCCCOc1ccc(S(=O)(=O)N2CC(NCC(O)c3ccc(O)c(NS(C)(=O)=O)c3)C2)cc1 (stereo not shown) [Example 5, N-(5-{2-[1-(4-Butoxy-benzenesulfonyl)-azetidin-3-ylamino]-1-hydroxy-ethyl)-2-hydroxy-phenyl)-methanesulfonamide] | – | – | – | – | 67 to 70 | – | – | 78
CCCCOc1ccc(S(=O)(=O)N2CCC(NCC(O)c3ccc(O)c(NS(C)(=O)=O)c3)C2)cc1 (stereo not shown) [Example 6, N-(5-{2-[1-(4-Butoxy-benzenesulfonyl)-pyrrolidin-3-ylamino]-1-hydroxy-ethyl}-2-hydroxy-phenyl)-methanesulfonamide] | – | – | – | – | 95 to 98 | – | – | –
CCCCOc1ccc(S(=O)(=O)N2CCC(NC[C@H](O)COc3cccc4[nH]c5ccccc5c34)C2)cc1 (stereo partly drawn) [Example 7, (2S)-1-[1-(4-Butoxy-benzenesulfonyl)-pyrrolidin-3-ylamino]-3-(9H-carbazol-4-yloxy)-propan-2-ol] | – | – | – | – | 118 to 119 | – | – | –
O=c1[nH]c2cccc(OC[C@@H](O)CNC3CCN(S(=O)(=O)c4cccc5nsnc45)CC3)c2[nH]1 [Example 8, 4-{(2S)-3-[1-(Benzo[1,2,5]thiadiazole-4-sulfonyl)-piperidin-4-ylamino]-2-hydroxy-propoxy}-1,3-dihydro-benzoimidazol-2-one] | – | – | – | – | – | 800 | 0.75 | –
CCCCOc1ccc(S(=O)(=O)N2CCC(NC[C@H](O)COc3cccc4[nH]c(=O)[nH]c34)CC2)cc1 [Example 9, 4-((2S)-3-[1-(4-Butoxy-benzenesulfonyl)-piperidin-4-ylamino]-2-hydroxy-propoxy}-1,3-dihydro-benzoimidazol-2-one] | – | – | – | – | – | 500 | 0.8 | –
CCCCOc1ccc(S(=O)(=O)N2CCC(NC[C@H](O)COc3cccc4[nH]c5ccccc5c34)CC2)cc1 [Example 14, (2S)-1-[1-(4-Butoxy-benzenesulfonyl)-piperidin-4-ylamino]-3-(9H-carbazol-4-yloxy)-propan-2-ol] | (0.04) | – | (0.07) | – | – | 850 | 0.74 | –
COc1ccc(S(=O)(=O)N2CCC(NC[C@H](O)COc3cccc4[nH]c5ccccc5c34)CC2)cc1 [Example 15, (2S)-1-(9H-Carbazol-4-yloxy)-3-[1-(4-methoxy-benzenesulfonyl)-piperidin-4-ylamino]-propan-2-ol] | (0.1) | – | (0.03) | – | – | 60 | 0.88 | –
COc1ccc(S(=O)(=O)N2CCC(NC[C@H](O)COc3cccc4[nH]c(=O)[nH]c34)CC2)cc1OC [Example 20, 4-{(2S)-3-[1-(3,4-Dimethoxy-benzenesulfonyl)-piperidin-4-ylamino]-2-hydroxy-propoxy}-1,3-dihydro-benzoimidazol-2-one] | (0.3) | – | (0.01) | – | – | 80 | 0.87 | –
COc1ccc(S(=O)(=O)N2CCC(NC[C@H](O)COc3cccc4[nH]c5ccccc5c34)CC2)cc1OC [Example 21, (2S)-1-(9H-Carbazol-4-yloxy)-3-[1-(3,4-dimethoxy-benzenesulfonyl)-piperidin-4-ylamino]-propan-2-ol] | (0.1) | – | (0.02) | – | – | 20 | 1.2 | –
CS(=O)(=O)Nc1cc(C(O)CNC2CCN(S(=O)(=O)c3ccc4oc5ccccc5c4c3)CC2)ccc1O (stereo not shown) [Example 23, N-(5-(2-[1-(Dibenzofuran-2-sulfonyl)-piperidin-4-ylamino]-1-hydroxy-ethyl}-2-hydroxy-phenyl)-methanesulfonamide] | – | – | – | – | – | 100 | 0.88 | –
